Test results: ChEMBL document CHEMBL1137124, “Lysine sulfonamides as novel HIV-protease inhibitors: Nepsilon-disubstituted ureas” (Bioorg Med Chem Lett, 2004)

Columns and labels:
[1] = molecular target: Human immunodeficiency virus type 1 protease (Human immunodeficiency virus 1, UniProt Q72874); assay: Inhibition constant for HIV aspartyl protease
[2] = system: Human immunodeficiency virus; assay: Effective concentration against wild type virus HIV virus was determined in anti-viral assay; format: functional, organism-based; details: Human immunodeficiency virus 1
[3] = system: Human immunodeficiency virus; assay: Effective concentration against wild type HIV virus was determined in anti-viral assay; format: functional, organism-based; details: Human immunodeficiency virus 1

| Structure (SMILES) | Ki [1] | EC50 [2] | EC50 [3] |
| --- | --- | --- | --- |
| Cc1ccc(S(=O)(=O)N(CC(C)C)[C@@H](CCCCNC(=O)N(C(C)C)C(C)C)C(=O)O)cc1 | 300 nM | – | – |
| Cc1ccc(S(=O)(=O)N(CC(C)C)[C@@H](CCCCNC(=O)N(CCc2ccccc2)Cc2ccccc2)C(=O)O)cc1 | > 300 nM | – | – |
| CC(C)CCN([C@H](CO)CCCCNC(=O)N(Cc1ccc2c(c1)OCO2)Cc1cccs1)S(=O)(=O)c1ccc(N)cc1 | 1.4 nM | 800 nM | – |
| COc1ccc(CN(Cc2ccc3c(c2)OCO3)C(=S)NCCCC[C@@H](CO)N(CCC(C)C)S(=O)(=O)c2ccc(N)cc2)cc1 | 3.6 nM | – | – |
| Cc1ccc(S(=O)(=O)N(CC(C)C)[C@@H](CCCCNC(=O)NCCc2ccccc2)C(=O)O)cc1 | 204 nM | – | – |
| CC(C)CN([C@H](CO)CCCCNC(=O)N(Cc1ccccc1)Cc1ccc(F)cc1)S(=O)(=O)c1ccc(N)cc1 | 3.3 nM | – | > 10000 nM |
| CC(C)CCN([C@H](CO)CCCCNC(=O)N(Cc1ccccc1)Cc1ccccc1)S(=O)(=O)c1ccc(N)cc1 | 5.8 nM | > 10000 nM | – |
| CC(C)CN([C@H](CO)CCCCNC(=O)N(Cc1ccccc1)Cc1cccnc1)S(=O)(=O)c1ccc(N)cc1 | 34 nM | – | 8500 nM |
| CC(C)CN([C@H](CO)CCCCNC(=O)N(Cc1ccccc1)Cc1ccncc1)S(=O)(=O)c1ccc(N)cc1 | 90 nM | – | > 10000 nM |
| CC(C)CCN([C@H](CO)CCCCNC(=O)N(Cc1ccc([N+](=O)[O-])cc1)Cc1ccc2c(c1)OCO2)S(=O)(=O)c1ccc(N)cc1 | 2.2 nM | 845 nM | – |
| CC(C)CN([C@H](CO)CCCCNC(=O)N(Cc1ccc([N+](=O)[O-])cc1)Cc1ccc2c(c1)OCO2)S(=O)(=O)c1ccc(N)cc1 | 2 nM | – | 620 nM |
| CC(C)CN([C@H](CO)CCCCNC(=O)N(Cc1ccccc1)Cc1cccc2c1OCO2)S(=O)(=O)c1ccc(N)cc1 | 5.4 nM | – | > 10000 nM |
| CC(C)CCN([C@H](CO)CCCCNC(=O)N(Cc1ccc(F)cc1)Cc1ccc2c(c1)OCCO2)S(=O)(=O)c1ccc(N)cc1 | 5.4 nM | – | – |
| CC(C)CN([C@H](CO)CCCCNC(=O)N(Cc1ccc2c(c1)OCO2)Cc1cccs1)S(=O)(=O)c1ccc(N)cc1 | 2 nM | – | 4000 nM |
| COc1cccc(CN(Cc2ccc3c(c2)OCO3)C(=S)NCCCC[C@@H](CO)N(CCC(C)C)S(=O)(=O)c2ccc(N)cc2)c1 | 2.6 nM | – | – |
| CC(C)CN([C@H](CO)CCCCNC(=O)N(Cc1ccccc1)Cc1ccc(F)cc1F)S(=O)(=O)c1ccc(N)cc1 | 12 nM | – | 3200 nM |
| COc1cccc(CN(Cc2ccc3c(c2)OCO3)C(=O)NCCCC[C@@H](CO)N(CCC(C)C)S(=O)(=O)c2ccc(N)cc2)c1 | 2.2 nM | – | – |
| Cc1ccc(S(=O)(=O)N(CC(C)C)[C@@H](CCCCNC(=O)NCc2ccccn2)C(=O)O)cc1 | > 300 nM | – | – |
| COc1ccc(CN(Cc2ccc3c(c2)OCO3)C(=O)NCCCC[C@@H](CO)N(CCC(C)C)S(=O)(=O)c2ccc(N)cc2)cc1 | 2.9 nM | 700 nM | – |

| Structure (SMILES) | Ki [1] | EC50 [2] | EC50 [3] |
| --- | --- | --- | --- |
| Cc1ccc(S(=O)(=O)N(CC(C)C)[C@H](CO)CCCCNC(=O)N(Cc2ccccc2)Cc2ccccc2)cc1 | 15 nM | – | – |
| COc1ccc(CN(Cc2ccc3c(c2)OCO3)C(=O)NCCCC[C@@H](CO)N(CC(C)C)S(=O)(=O)c2ccc(N)cc2)cc1 | 2.2 nM | – | 500 nM |
| CC(C)CCN([C@H](CO)CCCCNC(=O)N(Cc1ccccc1)Cc1ccc2c(c1)OCO2)S(=O)(=O)c1ccc(N)cc1 | 4.1 nM | 871 nM | – |
| Cc1ccc(S(=O)(=O)N(CC(C)C)[C@@H](CCCCNC(=O)N(Cc2ccccc2)Cc2ccccc2)C(=O)O)cc1 | 7.2 nM | – | – |
| CC(C)CN([C@H](CO)CCCCNC(=O)N(Cc1ccccc1)Cc1cccs1)S(=O)(=O)c1ccc(N)cc1 | 11 nM | – | 5000 nM |
| CC(C)CCN([C@H](CO)CCCCNC(=S)N(Cc1ccc(F)cc1)Cc1ccc2c(c1)OCCO2)S(=O)(=O)c1ccc(N)cc1 | 9.9 nM | – | – |
| Cc1ccc(S(=O)(=O)N(CC(C)C)[C@@H](CCCCNC(=O)N(Cc2ccccc2)C(C)C)C(=O)O)cc1 | 19 nM | – | – |
| CC(C)CN([C@H](CO)CCCCNC(=O)N(Cc1ccc2c(c1)OCO2)Cc1ccc2c(c1)OCO2)S(=O)(=O)c1ccc(N)cc1 | 1.7 nM | – | 150 nM |
| CC(C)CN([C@H](CO)CCCCNC(=O)N(Cc1ccc(C(F)(F)F)cc1)Cc1ccc2c(c1)OCO2)S(=O)(=O)c1ccc(N)cc1 | 2.5 nM | – | 1600 nM |
| CC(C)CN([C@H](CO)CCCCNC(=O)N(Cc1ccccc1)Cc1ccccc1)S(=O)(=O)c1ccc(N)cc1 | 12 nM | – | 3000 nM |
| CC(C)CCN([C@H](CO)CCCCNC(=O)N(Cc1ccc(F)cc1)Cc1ccc2c(c1)OCO2)S(=O)(=O)c1ccc(N)cc1 | 4.9 nM | 1200 nM | – |
| CC(C)CN([C@H](CO)CCCCNC(=O)N(Cc1ccc(F)cc1)Cc1ccc2c(c1)OCO2)S(=O)(=O)c1ccc(N)cc1 | 2 nM | – | 488 nM |
| COc1ccc(CN(Cc2ccc3c(c2)OCO3)C(=S)NCCCC[C@@H](CO)N(CCC(C)C)S(=O)(=O)c2ccc(N)cc2)cc1OC | 2.9 nM | – | – |
| CC(C)CCN([C@H](CO)CCCCNC(=O)N(Cc1ccccc1)Cc1cccc2c1OCO2)S(=O)(=O)c1ccc(N)cc1 | 4 nM | > 10000 nM | – |
| COc1ccc(CN(Cc2ccc3c(c2)OCO3)C(=O)NCCCC[C@@H](CO)N(CCC(C)C)S(=O)(=O)c2ccc(N)cc2)cc1OC | 3 nM | – | – |
| CC(C)CCN([C@H](CO)CCCCNC(=O)N(Cc1ccc(C(F)(F)F)cc1)Cc1ccc2c(c1)OCO2)S(=O)(=O)c1ccc(N)cc1 | 3 nM | > 10000 nM | – |
| CC(C)CN([C@H](CO)CCCCNC(=O)N(Cc1ccccc1)Cc1ccc2c(c1)OCO2)S(=O)(=O)c1ccc(N)cc1 | 2.6 nM | – | 1400 nM |
| Cc1ccc(S(=O)(=O)N(CC(C)C)[C@@H](CCCCNC(=O)N(Cc2ccccc2)Cc2ccncc2)C(=O)O)cc1 | 3.7 nM | – | – |
| CC(C)CN([C@H](CO)CCCCNC(=O)N(Cc1ccsc1)Cc1ccc2c(c1)OCO2)S(=O)(=O)c1ccc(N)cc1 | 6.3 nM | – | 5000 nM |
